Results published in paper PMC5740381 (Antimicrobial Agents and Chemotherapy, 2017).
Read-outs that look alike come from different tables or passages of the source.

Legend:
1b D168E = target: T1, 1b D168E (Hepatitis C virus (isolate Con1), UniProt Q9WMX2, D1194E); assay: Luciferase assay of HCV replication in transient-transfection replicons with wild-type or substituted NS3 (at least 3 transfections).; assay type: cell-based, Huh-7; conditions: SD, n = 3
T1 construct: in transient replicon
Method: (§1) Mutagenesis was performed using a Change-IT multiple-mutation site-directed mutagenesis kit (USB, Cleveland, OH) or by cloning a synthesized DNA fragment encoding the amino acid substitution(s). The genotype 1a and 1b replicon shuttle vectors used for the introduction of the substitutions of interest in the NS3, NS5A, or NS5B gene for transient-transfection assays have been described previously ([28], [33]). The replicon shuttle vectors used for the introduction of substitutions in NS3 genes from other genotypes were similar to the stable replicon cell line constructs described above, except for the absence of the neo gene. After mutagenesis, the plasmids were linearized and RNA was transcribed and then used to transfect Huh-7 cells. Inhibition of HCV replication by the HCV inhibitors was measured by luciferase assay, as described above. Replication efficiency was calculated as a percentage of wild-type replication, as described previously ([28]).

1a F43L = target: T2, 1a F43L (Hepatitis C virus (isolate H77), UniProt P27958, F1069L); assay: as above; assay type: cell-based, Huh-7; conditions: SD, n = 3
T2 construct: in transient replicon
Method: as §1

1a Q80K = target: T3, 1a Q80K (Hepatitis C virus (isolate H77), UniProt P27958, Q1106K); assay: as above; assay type: cell-based, Huh-7; conditions: SD, n = 3
T3 construct: in transient replicon
Method: as §1

1b D168A = target: T4, 1b D168A (Hepatitis C virus (isolate Con1), UniProt Q9WMX2, D1194A); assay: as above; assay type: cell-based, Huh-7; conditions: SD, n = 3
T4 construct: in transient replicon
Method: as §1

2a A156T = target: T5, 2a A156T (Hepatitis C virus JFH-1, UniProt Q99IB8, A1186T); assay: as above; assay type: cell-based, Huh-7; conditions: SD, n = 3
T5 construct: in transient replicon
Method: as §1

5a D168E = target: T6, 5a D168E (Hepatitis C virus SA13, UniProt O91936, D1195E); assay: as above; assay type: cell-based, Huh-7; conditions: SD, n = 3
T6 construct: in genotype 2a JFH-1 chimeric transient replicon
Method: as §1

2a D168V = target: T7, 2a D168V (Hepatitis C virus JFH-1, UniProt Q99IB8, D1198V); assay: as above; assay type: cell-based, Huh-7; conditions: SD, n = 3
T7 construct: in transient replicon
Method: as §1

1a T54S = target: T8, 1a T54S (Hepatitis C virus (isolate H77), UniProt P27958, T1080S); assay: as above; assay type: cell-based, Huh-7; conditions: SD, n = 3
T8 construct: in transient replicon
Method: as §1

1a D168A = target: T9, 1a D168A (Hepatitis C virus (isolate H77), UniProt P27958, D1194A); assay: as above; assay type: cell-based, Huh-7; conditions: SD, n = 3
T9 construct: in transient replicon
Method: as §1

1b V55A = target: T10, 1b V55A (Hepatitis C virus (isolate Con1), UniProt Q9WMX2, V1081A); assay: as above; assay type: cell-based, Huh-7; conditions: SD, n = 3
T10 construct: in transient replicon
Method: as §1

1a Y56H = target: T11, 1a Y56H (Hepatitis C virus (isolate H77), UniProt P27958, Y1082H); assay: as above; assay type: cell-based, Huh-7; conditions: SD, n = 3
T11 construct: in transient replicon
Method: as §1

1a R155K = target: T12, 1a R155K (Hepatitis C virus (isolate H77), UniProt P27958, R1181K); assay: as above; assay type: cell-based, Huh-7; conditions: SD, n = 3
T12 construct: in transient replicon
Method: as §1

1b V170A = target: T13, 1b V170A (Hepatitis C virus (isolate Con1), UniProt Q9WMX2, V1196A); assay: as above; assay type: cell-based, Huh-7; conditions: SD, n = 3
T13 construct: in transient replicon
Method: as §1

1b A156T = target: T14, 1b A156T (Hepatitis C virus (isolate Con1), UniProt Q9WMX2, A1182T); assay: as above; assay type: cell-based, Huh-7; conditions: SD, n = 3
T14 construct: in transient replicon
Method: as §1

1b A156V = target: T15, 1b A156V (Hepatitis C virus (isolate Con1), UniProt Q9WMX2, A1182V); assay: as above; assay type: cell-based, Huh-7; conditions: SD, n = 3
T15 construct: in transient replicon
Method: as §1

1a V36M = target: T16, 1a V36M (Hepatitis C virus (isolate H77), UniProt P27958, V1062M); assay: as above; assay type: cell-based, Huh-7; conditions: SD, n = 3
T16 construct: in transient replicon
Method: as §1

1a A156T = target: T17, 1a A156T (Hepatitis C virus (isolate H77), UniProt P27958, A1182T); assay: as above; assay type: cell-based, Huh-7; conditions: SD, n = 3
T17 construct: in transient replicon
Method: as §1

1b R155K = target: T18, 1b R155K (Hepatitis C virus (isolate Con1), UniProt Q9WMX2, R1181K); assay: as above; assay type: cell-based, Huh-7; conditions: SD, n = 3
T18 construct: in transient replicon
Method: as §1

1a D168V = target: T19, 1a D168V (Hepatitis C virus (isolate H77), UniProt P27958, D1194V); assay: as above; assay type: cell-based, Huh-7; conditions: SD, n = 3
T19 construct: in transient replicon
Method: as §1

1a V55I = target: T20, 1a V55I (Hepatitis C virus (isolate H77), UniProt P27958, V1081I); assay: as above; assay type: cell-based, Huh-7; conditions: SD, n = 3
T20 construct: in transient replicon
Method: as §1

2a D168E = target: T21, 2a D168E (Hepatitis C virus JFH-1, UniProt Q99IB8, D1198E); assay: as above; assay type: cell-based, Huh-7; conditions: SD, n = 3
T21 construct: in transient replicon
Method: as §1

2a A156V = target: T22, 2a A156V (Hepatitis C virus JFH-1, UniProt Q99IB8, A1186V); assay: as above; assay type: cell-based, Huh-7; conditions: SD, n = 3
T22 construct: in transient replicon
Method: as §1

5a D168H = target: T23, 5a D168H (Hepatitis C virus SA13, UniProt O91936, D1195H); assay: as above; assay type: cell-based, Huh-7; conditions: SD, n = 3
T23 construct: in genotype 2a JFH-1 chimeric transient replicon
Method: as §1

1a D168E = target: T24, 1a D168E (Hepatitis C virus (isolate H77), UniProt P27958, D1194E); assay: as above; assay type: cell-based, Huh-7; conditions: SD, n = 3
T24 construct: in transient replicon
Method: as §1

2a D168A = target: T25, 2a D168A (Hepatitis C virus JFH-1, UniProt Q99IB8, D1198A); assay: as above; assay type: cell-based, Huh-7; conditions: SD, n = 3
T25 construct: in transient replicon
Method: as §1

1b T54A = target: T26, 1b T54A (Hepatitis C virus (isolate Con1), UniProt Q9WMX2, T1080A); assay: as above; assay type: cell-based, Huh-7; conditions: SD, n = 3
T26 construct: in transient replicon
Method: as §1

1b D168V = target: T27, 1b D168V (Hepatitis C virus (isolate Con1), UniProt Q9WMX2, D1194V); assay: as above; assay type: cell-based, Huh-7; conditions: SD, n = 3
T27 construct: in transient replicon
Method: as §1

GT1a H77 / 1a Wild type [1] = target: T28, GT1a H77 / 1a Wild type (Hepatitis C virus (isolate H77), UniProt P27958); assay: cell-based; parameters: species or system Huh-7; conditions: SD, n = 3; read-out: HCV stable replicons in 0% human plasma, Mean EC50 ± SD
T28 construct: in subgenomic replicon
Text: (§2) Five of these nine cell lines have been described previously, including those transfected with genotypes 1a H77, 1b Con1, 3a, 4a, and 6a ([28]). […] The genotype 2b and 6e NS3 sequences were each synthetically constructed based on a consensus sequence derived from the alignment of 15 genotype 2b and 4 genotype 6e sequences, respectively. All replicon constructs were bicistronic subgenomic replicons similar to those described by Bartenschlager and coworkers, and the replicon cell lines were generated by introducing these constructs into cells of an Huh-7 human hepatoma-derived cell line ([50]). The inhibitory effect of the PIs on HCV replication in replicon cells was determined in Dulbecco's modified Eagle medium containing 5% fetal bovine serum with or without 40% human plasma (Bioreclamation, Westbury, NY). The EC50s were determined using nonlinear regression curve fitting as described previously ([33]).

GT1b Con1 / 1b Wild type [2] = target: T29, GT1b Con1 / 1b Wild type (Hepatitis C virus (isolate Con1), UniProt Q9WMX2); assay: cell-based; parameters: species or system Huh-7; conditions: SD, n = 3; read-out: HCV stable replicons in 0% human plasma, Mean EC50 ± SD
T29 construct: in subgenomic replicon
Text: as §2

GT1a H77 / 1a Wild type [3] = target: T28, GT1a H77 / 1a Wild type; assay: cell-based; parameters: species or system Huh-7; conditions: SD, n = 3
Method: as §1

GT1b Con1 / 1b Wild type [4] = target: T29, GT1b Con1 / 1b Wild type; assay: cell-based; parameters: species or system Huh-7; conditions: SD, n = 3
Method: as §1

[5] = test system: HCV genotype 1b replicon cells; assay: Drug-resistant colony selection in replicon cells; assay type: cell-based, Hepatitis C virus; conditions: 10× EC50, about 3 weeks
Text: (§3) . After approximately 3 weeks of treatment, the surviving replicon colonies in one plate for each selection condition were stained with crystal violet and counted, whereas approximately 20 to 30 colonies in a replicate plate or most of the colonies, if less than 20 colonies survived the selection, were picked and further expanded for genotyping. The expanded colonies were lysed in CellsDirect lysis buffer (Invitrogen, MA), and the NS3-coding region from each colony was amplified by reverse transcription-PCR and sequenced. For genotype 1a, 1b, 2a, and 5a colonies, the full-length NS3 sequence was determined, whereas for colonies of the chimeric replicon containing the N-terminal region of NS3 from genotype 2b, 3a, 4a, or 6a, the sequence encoding the NS3 N-terminal region was determined. We defined a substitution in a replicon to be an amino acid difference in a sequence from a posttreatment sample relative to the sequence of the corresponding untreated sample. For resistance selection studies, NS3 substitutions detected at the following amino acid positions associated with resistance to the HCV PI class in >2 colonies in each replicon selection are reported: 36, 43, 54, 55, 56, 80, 122, 155, 156, and 168. In addition, substitutions detected at other amino acid positions in the NS3 protease domain in >2 colonies in each replicon selection are also reported.
(§4) […]. The drug-resistant colonies were fixed and stained with crystal violet, and the number of colonies was determined.

[6] = test system: HCV genotype 1a replicon cells; assay: Drug-resistant colony selection in replicon cells; assay type: cell-based, Hepatitis C virus; conditions: 10× EC50, about 3 weeks
Text: as §3, §4

[7] = test system: genotype 1b Con1 replicon cells; conditions: genotype 1b replicon cells; cited from earlier work

SMILES: Cc1cnc(C(=O)N[C@H]2CCCCC/C=C\[C@@H]3C[C@@]3(C(=O)NS(=O)(=O)C3CC3)NC(=O)[C@@H]3C[C@@H](Oc4nc5ccccc5c5ccccc45)CN3C2=O)cn1 [Paritaprevir, paritaprevir (ABT-450)]
- EC50 (1b D168E): 0.48 ± 0.05 nM
- EC50 (1a F43L): 27 ± 12 nM
- EC50 (1a Q80K): 3.9 ± 0.3 nM
- EC50 (1b D168A): 3 ± 0.2 nM
- EC50 (2a A156T): 29 ± 2.8 nM
- EC50 (5a D168E): 7.7 ± 1.7 nM
- EC50 (2a D168V): 228 ± 32 nM
- EC50 (1a T54S): 0.54 ± 0.01 nM
- EC50 (1a D168A): 70 ± 9 nM
- EC50 (1b V55A): 0.07 ± 0.001 nM
- EC50 (1a Y56H): 4.1 ± 1.1 nM
- EC50 (1a R155K): 51 ± 8 nM
- EC50 (1b V170A): 0.09 ± 0.03 nM
- EC50 (1b A156T): 0.81 ± 0.13 nM
- EC50 (1b A156V): 2.3 ± 0.53 nM
- EC50 (1a V36M): 3 ± 0.3 nM
- EC50 (1a A156T): 24 ± 3 nM
- EC50 (1b R155K): 4.4 ± 0.1 nM
- EC50 (1a D168V): 135 ± 21 nM
- EC50 (1a V55I): 1.4 ± 0.14 nM
- EC50 (2a D168E): 89 ± 15 nM
- EC50 (2a A156V): 37 ± 1.2 nM
- EC50 (5a D168H): 184 ± 65 nM
- EC50 (1a D168E): 20 ± 0.7 nM
- EC50 (2a D168A): 306 ± 34 nM
- EC50 (1b T54A): 0.09 ± 0.01 nM
- EC50 (1b D168V): 17 ± 2 nM
- EC50 (GT1a H77 / 1a Wild type [1]): 1 ± 0.33 nM
- EC50 (GT1b Con1 / 1b Wild type [2]): 0.21 ± 0.07 nM
- EC50 (GT1a H77 / 1a Wild type [3]): 1.4 ± 0.4 nM
- EC50 (GT1b Con1 / 1b Wild type [4]): 0.11 ± 0.05 nM

SMILES: COC(=O)N[C@H](C(=O)N1CCC[C@H]1c1nc2cc([C@H]3CC[C@H](c4cc5nc([C@@H]6CCCN6C(=O)[C@@H](NC(=O)OC)[C@@H](C)OC)[nH]c5cc4F)N3c3cc(F)c(N4CCC(c5ccc(F)cc5)CC4)c(F)c3)c(F)cc2[nH]1)[C@@H](C)OC [Pibrentasvir, reference compound]
- Colony survival [5]: 0%
- Colony survival ([5]; listed as pibrentasvir): no genotype 1b replicon cells survived
- Colony survival [6]: 0.0065%
- EC50 [7]: 0.0043 nM
